{
  "source": "patent US20240238425A1",
  "about": "“HSD17B13 Inhibitors and/or Degraders” (Pfizer Inc., priority 2022, published 2024)",
  "test_system": "HiBiT-HSD17β13 fusion protein (N-terminal HiBiT-tagged HSD17β13 isoform D) in Huh7 HiBiT-HSD17β13 OE cells",
  "assay": "Whole-cell Huh7-HSD17B13 HiBiT assay (degrader potency and maximal efficacy, luminescence readout)",
  "assay_type": "cell-based, human",
  "conditions": "24 hour incubation, geometric mean, * = geometric mean for all forms tested (parent and salt forms); for DC50: read-out: Huh7_HIBIT-HSD17β13_DC50 GMean DC50; for Huh7_HIBIT-HSD17β13_DC50 GMean Asymptote Maximum: max. concentration 1 μM",
  "summary_of_the_method": "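Huh7 cells stably overexpressing N-terminal HiBiT-tagged HSD17β13 isoform D, clone matched to primary hepatocyte expression, were exposed to an 11-point, 1 in 3.162 dilution series (top 1 μM final) for 24 h at 37° C. Lytic HiBiT luminescence was normalised to DMSO and parental-cell controls; DC50 from four-parameter logistic fit, with CellTiter-Glo counter screen.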",
  "note": "Where a name gives a salt, the structure may show the parent alone.",
  "data": [
    {"compound": "Cc1ccc(C(=O)N2CCC(CCCN3CCN(c4ccc5cn([C@H]6CC[C@H](CNC(=O)c7cc(F)c(O)c(F)c7F)CC6)nc5c4)CC3)CC2)cc1N1CCC(=O)NC1=O", "note": "[Example 40, N-{[(1r,4r)-4-{6-[4-(3-{1-[3-(2,4-dioxo-1,3-diazinan-1-yl)-4-methylbenzoyl]piperidin-4-yl}propyl)piperazin-1-yl]-2H-indazol-2-yl}cyclohexyl]methyl}-2,3,5-trifluoro-4-hydroxybenzamide, trifluoroacetate salt]", "values": [
      {"measurement": "DC50", "value": 4.1, "unit": "nM"},
      {"measurement": "Huh7_HIBIT-HSD17β13_DC50 GMean Asymptote Maximum", "value": 74, "unit": "%"}
    ]},
    {"compound": "Cc1ccc(C(=O)N2CCN(CC3CCN(c4ncc(-c5ccc6cn([C@H]7CC[C@H](CNC(=O)c8cc(F)c(O)c(F)c8F)CC7)nc6c5)cn4)CC3)CC2)cc1N1CCC(=O)NC1=O", "note": "[Example 42, N-{[(1r,4r)-4-(6-{2-[4-({4-[3-(2,4-dioxo-1,3-diazinan-1-yl)-4-methylbenzoyl]piperazin-1-yl}methyl)piperidin-1-yl]pyrimidin-5-yl}-2H-indazol-2-yl)cyclohexyl]methyl}-2,3,5-trifluoro-4-hydroxybenzamide, trifluoroacetate salt]", "values": [
      {"measurement": "DC50", "value": 3.3, "unit": "nM"},
      {"measurement": "Huh7_HIBIT-HSD17β13_DC50 GMean Asymptote Maximum", "value": 83, "unit": "%"}
    ]},
    {"compound": "Cc1ccc(C(=O)N2CCC(CN3CCN(c4ncc(-c5ccc6cn([C@H]7CC[C@H](CNC(=O)c8cc(F)c(O)c(F)c8F)CC7)nc6c5)cn4)CC3)CC2)cc1N1CCC(=O)NC1=O", "note": "[Example 45, N-{[(1r,4r)-4-(6-{2-[4-({1-[3-(2,4-dioxo-1,3-diazinan-1-yl)-4-methylbenzoyl]piperidin-4-yl}methyl)piperazin-1-yl]pyrimidin-5-yl}-2H-indazol-2-yl)cyclohexyl]methyl}-2,3,5-trifluoro-4-hydroxybenzamide, trifluoroacetate salt]", "values": [
      {"measurement": "DC50", "value": 3.1, "unit": "nM"},
      {"measurement": "Huh7_HIBIT-HSD17β13_DC50 GMean Asymptote Maximum", "value": 76, "unit": "%"}
    ]},
    {"compound": "O=C1CCN(c2cnc3cc(CCCN4CCN(c5ccc6cn([C@H]7CC[C@H](CNC(=O)c8cc(F)c(O)c(F)c8F)CC7)nc6c5)CC4)ccn23)C(=O)N1", "note": "[Example 47, N-({(1r,4r)-4-[6-(4-{3-[3-(2,4-dioxo-1,3-diazinan-1-yl)imidazo[1,2-a]pyridin-7-yl]propyl}piperazin-1-yl)-2H-indazol-2-yl]cyclohexyl}methyl)-2,3,5-trifluoro-4-hydroxybenzamide, trifluoroacetate salt]", "values": [
      {"measurement": "DC50", "value": 4.3, "unit": "nM"},
      {"measurement": "Huh7_HIBIT-HSD17β13_DC50 GMean Asymptote Maximum", "value": 78, "unit": "%"}
    ]},
    {"compound": "O=C1CCN(c2cnn3cc(CCCN4CCN(c5ccc6cn([C@H]7CC[C@H](CNC(=O)c8cc(F)c(O)c(F)c8F)CC7)nc6c5)CC4)ccc23)C(=O)N1", "note": "[Example 48, N-({(1r,4r)-4-[6-(4-{3-[3-(2,4-dioxo-1,3-diazinan-1-yl)pyrazolo[1,5-a]pyridin-6-yl]propyl}piperazin-1-yl)-2H-indazol-2-yl]cyclohexyl}methyl)-2,3,5-trifluoro-4-hydroxybenzamide, trifluoroacetate salt]", "values": [
      {"measurement": "DC50", "value": 1.5, "unit": "nM"},
      {"measurement": "Huh7_HIBIT-HSD17β13_DC50 GMean Asymptote Maximum", "value": 74, "unit": "%"}
    ]},
    {"compound": "Cc1ccc(C(=O)N2CCC(CN3CCN(c4ccc(-c5ccc6cn([C@H]7CC[C@H](CNC(=O)c8cc(F)c(O)c(F)c8F)CC7)nc6c5)nn4)CC3)CC2)cc1N1CCC(=O)NC1=O", "note": "[Example 49, N-{[(1r,4r)-4-(6-{6-[4-({1-[3-(2,4-dioxo-1,3-diazinan-1-yl)-4-methylbenzoyl]piperidin-4-yl}methyl)piperazin-1-yl]pyridazin-3-yl}-2H-indazol-2-yl)cyclohexyl]methyl}-2,3,5-trifluoro-4-hydroxybenzamide, trifluoroacetate salt]", "values": [
      {"measurement": "DC50", "value": 3.7, "unit": "nM"},
      {"measurement": "Huh7_HIBIT-HSD17β13_DC50 GMean Asymptote Maximum", "value": 82, "unit": "%"}
    ]},
    {"compound": "O=C1CCN(c2cnc3cc(CN4CCN(c5ncc(-c6ccc7cn([C@H]8CC[C@H](CNC(=O)c9cc(F)c(O)c(F)c9F)CC8)nc7c6)cn5)CC4)ccn23)C(=O)N1", "note": "[Example 50, N-{[(1r,4r)-4-{6-[2-(4-{[3-(2,4-dioxo-1,3-diazinan-1-yl)imidazo[1,2-a]pyridin-7-yl]methyl}piperazin-1-yl)pyrimidin-5-yl]-2H-indazol-2-yl}cyclohexyl]methyl}-2,3,5-trifluoro-4-hydroxybenzamide, trifluoroacetate salt]", "values": [
      {"measurement": "DC50", "value": 0.91, "unit": "nM"},
      {"measurement": "Huh7_HIBIT-HSD17β13_DC50 GMean Asymptote Maximum", "value": 85, "unit": "%"}
    ]},
    {"compound": "O=C1CCN(c2cnn3cc(CCCN4CCN(c5ncc(-c6ccc7cn([C@H]8CC[C@H](CNC(=O)c9cc(F)c(O)c(F)c9F)CC8)nc7c6)cn5)CC4)ccc23)C(=O)N1", "note": "[Example 53, N-{[(1r,4r)-4-{6-[2-(4-{3-[3-(2,4-dioxo-1,3-diazinan-1-yl)pyrazolo[1,5-a]pyridin-6-yl]propyl}piperazin-1-yl)pyrimidin-5-yl]-2H-indazol-2-yl}cyclohexyl]methyl}-2,3,5-trifluoro-4-hydroxybenzamide, trifluoroacetate salt]", "values": [
      {"measurement": "DC50", "value": 0.78, "unit": "nM"},
      {"measurement": "Huh7_HIBIT-HSD17β13_DC50 GMean Asymptote Maximum", "value": 77, "unit": "%"}
    ]},
    {"compound": "O=C1CCN(c2cnn3cc(CCN4CCN(c5ncc(-c6ccc7cn([C@H]8CC[C@H](CNC(=O)c9cc(F)c(O)c(F)c9F)CC8)nc7c6)cn5)CC4)ccc23)C(=O)N1", "note": "[Example 54, N-{[(1r,4r)-4-{6-[2-(4-{2-[3-(2,4-dioxo-1,3-diazinan-1-yl)pyrazolo[1,5-a]pyridin-6-yl]ethyl}piperazin-1-yl)pyrimidin-5-yl]-2H-indazol-2-yl}cyclohexyl]methyl}-2,3,5-trifluoro-4-hydroxybenzamide, trifluoroacetate salt]", "values": [
      {"measurement": "DC50", "value": 0.64, "unit": "nM"},
      {"measurement": "Huh7_HIBIT-HSD17β13_DC50 GMean Asymptote Maximum", "value": 83, "unit": "%"}
    ]},
    {"compound": "Cc1ccc(C(=O)N2CCC(OC3CCN(c4ncc(-c5ccc6cn([C@H]7CC[C@H](CNC(=O)c8cc(F)c(O)c(F)c8F)CC7)nc6c5)cn4)CC3)CC2)cc1N1CCC(=O)NC1=O", "note": "[Example 57, N-{[(1r,4r)-4-(6-{2-[4-({1-[3-(2,4-dioxo-1,3-diazinan-1-yl)-4-methylbenzoyl]piperidin-4-yl}oxy)piperidin-1-yl]pyrimidin-5-yl}-2H-indazol-2-yl)cyclohexyl]methyl}-2,3,5-trifluoro-4-hydroxybenzamide, trifluoroacetate salt]", "values": [
      {"measurement": "DC50", "value": 4.8, "unit": "nM"},
      {"measurement": "Huh7_HIBIT-HSD17β13_DC50 GMean Asymptote Maximum", "value": 76, "unit": "%"}
    ]},
    {"compound": "Cc1ccc(C(=O)N2CCC3(CCN(c4ncc(-c5ccc6cn([C@H]7CC[C@H](CNC(=O)c8cc(F)c(O)c(F)c8F)CC7)nc6c5)cn4)CC3)C2)cc1N1CCC(=O)NC1=O", "note": "[Example 58, N-({(1r,4r)-4-[6-(2-{2-[3-(2,4-dioxo-1,3-diazinan-1-yl)-4-methylbenzoyl]-2,8-diazaspiro[4.5]decan-8-yl}pyrimidin-5-yl)-2H-indazol-2-yl]cyclohexyl}methyl)-2,3,5-trifluoro-4-hydroxybenzamide, trifluoroacetate salt]", "values": [
      {"measurement": "DC50", "value": 1.5, "unit": "nM"},
      {"measurement": "Huh7_HIBIT-HSD17β13_DC50 GMean Asymptote Maximum", "value": 73, "unit": "%"}
    ]},
    {"compound": "Cc1ccc(C(=O)N2CCN(C3COC4(CCN(c5ncc(-c6ccc7cn([C@H]8CC[C@H](CNC(=O)c9cc(F)c(O)c(F)c9F)CC8)nc7c6)cn5)CC4)C3)CC2)cc1N1CCC(=O)NC1=O", "note": "(some centres unmarked) [Example 59, N-{[(1r,4r)-4-{6-[2-(3-{4-[3-(2,4-dioxo-1,3-diazinan-1-yl)-4-methylbenzoyl]piperazin-1-yl}-1-oxa-8-azaspiro[4.5]decan-8-yl)pyrimidin-5-yl]-2H-indazol-2-yl}cyclohexyl]methyl}-2,3,5-trifluoro-4-hydroxybenzamide, trifluoroacetate salt]", "values": [
      {"measurement": "DC50", "value": 1, "unit": "nM"},
      {"measurement": "Huh7_HIBIT-HSD17β13_DC50 GMean Asymptote Maximum", "value": 80, "unit": "%"}
    ]},
    {"compound": "O=C1CCN(c2cnn3cc(CCCN4CCN(c5nccc(-c6nc([C@]78CC[C@](CNC(=O)c9cc(F)c(O)c(F)c9F)(CC7)CC8)no6)n5)CC4)ccc23)C(=O)N1", "note": "[Example 61, N-[(4-{5-[2-(4-{3-[3-(2,4-dioxo-1,3-diazinan-1-yl)pyrazolo[1,5-a]pyridin-6-yl]propyl}piperazin-1-yl)pyrimidin-4-yl]-1,2,4-oxadiazol-3-yl}bicyclo[2.2.2]octan-1-yl)methyl]-2,3,5-trifluoro-4-hydroxybenzamide, trifluoroacetate salt]", "values": [
      {"measurement": "DC50", "value": 2.6, "unit": "nM"},
      {"measurement": "Huh7_HIBIT-HSD17β13_DC50 GMean Asymptote Maximum", "value": 72, "unit": "%"}
    ]},
    {"compound": "Cc1ccc(C(=O)N2CCC3(CC2)CCN(c2ncc(-c4ccc5cn([C@H]6CC[C@H](CNC(=O)c7cc(F)c(O)c(F)c7F)CC6)nc5c4)cn2)C3)cc1N1CCC(=O)NC1=O", "note": "[Example 63, N-({(1r,4r)-4-[6-(2-{8-[3-(2,4-dioxo-1,3-diazinan-1-yl)-4-methylbenzoyl]-2,8-diazaspiro[4.5]decan-2-yl}pyrimidin-5-yl)-2H-indazol-2-yl]cyclohexyl}methyl)-2,3,5-trifluoro-4-hydroxybenzamide]", "values": [
      {"measurement": "DC50", "value": 2.6, "unit": "nM"},
      {"measurement": "Huh7_HIBIT-HSD17β13_DC50 GMean Asymptote Maximum", "value": 80, "unit": "%"}
    ]},
    {"compound": "Cc1ccc(C(=O)N2CCC3(CC2)C[C@@H](N2CCN(c4ncc(-c5ccc6cn([C@H]7CC[C@H](CNC(=O)c8cc(F)c(O)c(F)c8F)CC7)nc6c5)cn4)CC2)CO3)cc1N1CCC(=O)NC1=O", "note": "[Example 68, N-{[(1r,4r)-4-{6-[2-(4-{(3R)-8-[3-(2,4-dioxo-1,3-diazinan-1-yl)-4-methylbenzoyl]-1-oxa-8-azaspiro[4.5]decan-3-yl}piperazin-1-yl)pyrimidin-5-yl]-2H-indazol-2-yl}cyclohexyl]methyl}-2,3,5-trifluoro-4-hydroxybenzamide, trifluoroacetate salt]", "values": [
      {"measurement": "DC50", "value": 1.7, "unit": "nM"},
      {"measurement": "Huh7_HIBIT-HSD17β13_DC50 GMean Asymptote Maximum", "value": 79, "unit": "%"}
    ]},
    {"compound": "O=C1CCN(c2cnn3cc(CN4CCN(c5cnc(-c6ccc7cn([C@H]8CC[C@H](CNC(=O)c9cc(F)c(O)c(F)c9F)CC8)nc7c6)cn5)CC4)ccc23)C(=O)N1", "note": "[Example 70, N-{[(1r,4r)-4-{6-[5-(4-{[3-(2,4-dioxo-1,3-diazinan-1-yl)pyrazolo[1,5-a]pyridin-6-yl]methyl}piperazin-1-yl)pyrazin-2-yl]-2H-indazol-2-yl}cyclohexyl]methyl}-2,3,5-trifluoro-4-hydroxybenzamide, trifluoroacetate salt]", "values": [
      {"measurement": "DC50", "value": 1.1, "unit": "nM"},
      {"measurement": "Huh7_HIBIT-HSD17β13_DC50 GMean Asymptote Maximum", "value": 85, "unit": "%"}
    ]}
  ]
}
